Test system: atherosclerotic plaques
Experiment: Intravascular catheter beta probe detection of FDG in rabbit aorta
Assay type: in vivo, New Zealand white rabbits
Excerpt: Male New Zealand white rabbits ranging from 2.5 to 3.0 kilograms in weight (Charles River Breeding Lab) were maintained on a 2% cholesterol-6% peanut oil diet (ICN) for 10 weeks. After 1 week on the peanut oil diet, the abdominal aorta was denuded of endothelium by a modified Baumgartner technique. Briefly, each animal was anesthetized with a mixture of ketamine and xylazine and the right femoral artery was isolated. Subsequently, a 4 F Fogarty embolectomy catheter was introduced via arteriotomy and advanced under fluoroscopic guidance to the level of the diaphragm. The balloon was then inflated to 3 psi (pounds per square inch) above balloon inflation pressure and three passes were made down the abdominal aorta with the inflated catheter. […]
Additionally, FDG was administered intravenously to two additional rabbits. […] Aortic segments at previously assessed sites of plaque and control areas were excised and examined for uptake of FDG by standard well counting.
Sensitivity of the probe was 850±11 cps/μCi (mean±SD). Catheter-determined activity correlated well with well counting measurements, (r=0.89, P<0.001, FIG. 3). Moreover, atherosclerotic regions were readily distinguished from control by catheter mounted beta probe, (11.9±2.1 [n=9, range 9.7±15.3] vs. 4.8±1.9[n=14, range 1.3±7.3], cps in atherosclerotic vs. control regions, respectively, P<0.001; FIG. 4).

FDG activity by catheter mounted beta probe (atherosclerotic regions, n=9, FDG intravenously): 11.9±2.1 cps
FDG activity by catheter mounted beta probe (control regions, n=14, FDG intravenously): 4.8±1.9 cps
Compound: OC[C@H]1OC(O)[C@H]([18F])[C@@H](O)[C@@H]1O (some centres unmarked) [FDG, ^18F-Fluorodeoxyglucose]

From patent US20080193376A1, “Methods of Enhanced Detection and Therapy of Inflamed Tissues Using Immune Modulation” (priority 2004, published 2008)
